For 35 compounds, EC50 results are on record in US8969389B2, “Substituted 6-methylnicotinamides as mGluR5 positive allosteric modulators” (Vanderbilt University, priority 2010, dated 2015).

What is called EC50 is the concentration that produces a half-maximal response.

For one assay, the target named is T1, rat mGluR5 (Rattus norvegicus, UniProt P31424).
T1 construct: expressed in transfected cells; host or cells: HEK (human embryonic kidney) cells
T1 sequence (P31424 21-1203): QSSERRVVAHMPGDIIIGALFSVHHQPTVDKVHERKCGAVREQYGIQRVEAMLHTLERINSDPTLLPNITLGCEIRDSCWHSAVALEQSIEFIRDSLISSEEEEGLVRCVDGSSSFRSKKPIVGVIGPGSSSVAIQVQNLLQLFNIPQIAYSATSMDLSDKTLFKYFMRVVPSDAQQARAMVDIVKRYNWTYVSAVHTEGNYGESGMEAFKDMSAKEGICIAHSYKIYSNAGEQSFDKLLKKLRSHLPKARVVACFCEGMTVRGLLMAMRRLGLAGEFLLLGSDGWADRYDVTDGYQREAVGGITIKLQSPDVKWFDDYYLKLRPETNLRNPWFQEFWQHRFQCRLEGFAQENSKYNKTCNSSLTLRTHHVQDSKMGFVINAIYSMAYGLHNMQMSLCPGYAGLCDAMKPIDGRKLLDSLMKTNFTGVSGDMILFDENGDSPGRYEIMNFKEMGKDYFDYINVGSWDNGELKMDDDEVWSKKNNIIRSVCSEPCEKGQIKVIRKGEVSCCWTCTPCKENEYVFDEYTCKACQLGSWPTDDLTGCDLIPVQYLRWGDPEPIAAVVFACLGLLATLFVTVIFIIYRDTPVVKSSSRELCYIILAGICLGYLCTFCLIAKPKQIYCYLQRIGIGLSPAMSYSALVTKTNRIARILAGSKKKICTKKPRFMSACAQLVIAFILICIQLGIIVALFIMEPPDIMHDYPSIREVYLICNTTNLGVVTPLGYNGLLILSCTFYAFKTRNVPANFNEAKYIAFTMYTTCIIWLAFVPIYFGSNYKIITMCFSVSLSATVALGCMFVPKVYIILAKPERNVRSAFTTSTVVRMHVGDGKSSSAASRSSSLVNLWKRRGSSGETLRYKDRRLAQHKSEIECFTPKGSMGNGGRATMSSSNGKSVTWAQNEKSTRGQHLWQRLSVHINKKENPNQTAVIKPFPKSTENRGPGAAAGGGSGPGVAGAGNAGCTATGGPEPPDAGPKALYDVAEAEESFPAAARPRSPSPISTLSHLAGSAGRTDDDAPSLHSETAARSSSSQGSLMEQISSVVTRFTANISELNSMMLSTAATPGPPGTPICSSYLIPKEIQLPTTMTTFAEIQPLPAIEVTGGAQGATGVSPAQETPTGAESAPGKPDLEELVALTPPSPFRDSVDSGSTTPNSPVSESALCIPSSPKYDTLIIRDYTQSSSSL
Kind of assay: Potentiation of glutamate response in HEK cells transfected with rat mGluR5 (Ca2+ fluorescence, FDSS). It counts as cell-based. Conditions: (R) and (S) enantiomers, Tables 3A/3B; read-out: mGluR5 EC50. As to the method: (§1) Human embryonic kidney (HEK) cells transfected with rat mGluR5 were plated in clear bottom assay plates for assay in a Functional Drug Screening System (FDSS). In the alternative assay, HEK cells transfected with human mGluR5 (H10H cell line) were plated for assay in the FDSS. […] The cells were loaded with a Ca^2+-sensitive fluorescent dye (e.g., Fluo-4), and the plates were washed and placed in the FDSS instrument. After establishment of a fluorescence baseline for twelve seconds, the compounds of the present invention were added to the cells, and the response in cells was measured. Five minutes later, an mGluR5 agonist (e.g., glutamate, 3,5-dihydroxyphenylglycine, or quisqualate) was added to the cells, and the response of the cells was measured. Potentiation of the agonist response of mGluR5 by the compounds in the present invention was observed as an increase in response to non-maximal concentrations of agonist (here, glutamate) in the presence of compound compared to the response to agonist in the absence of compound.
(§2) The above described assay operated in two modes. In the first mode, a range of concentrations of the present compounds were added to cells, followed by a single fixed concentration of agonist. If a compound acted as a potentiator, an EC50 value for potentiation and a maximum extent of potentiation by the compound at this concentration of agonist was determined by non-linear curve fitting. In the second mode, several fixed concentrations of the present compounds were added to various wells on a plate, followed by a range of concentrations of agonist for each concentration of present compound; the EC50 values for the agonist at each concentration of compound were determined by non-linear curve fitting. A decrease in the EC50 value of the agonist with increasing concentrations of the present compounds (a leftward shift of the agonist concentration-response curve) is an indication of the degree of mGluR5 potentiation at a given concentration of the present compound. An increase in the EC50 value of the agonist with increasing concentrations of the present compounds (a rightward shift of the agonist concentration-response curve) is an indication of the degree of mGluR5 antagonism at a given concentration of the present compound. The second mode also indicates whether the present compounds also affect the maximum response to mGluR5 to agonists.
For the compound `C[C@@H](NC(=O)c1ccc(COc2cc(F)cc(F)c2)nc1)C1CCCCC1` [Example 12a, (R)-N-(1-cyclohexylethyl)-6-((3,5-difluorophenoxy)methyl)nicotinamide], the EC50 worked out at 309 nM.

As to `C[C@H](NC(=O)c1ccc(COc2cccc(F)c2)nc1)C(C)(C)C` [Example 13b, (S)-N-(3,3-dimethylbutan-2-yl)-6-((3-fluorophenoxy)methyl)nicotinamide], the EC50 is more than 10000 nM.

As for `C[C@H](NC(=O)c1ccc(COc2cccc(F)c2)nc1)C1CCCCC1` [Example 11b, (S)-N-(1-cyclohexylethyl)-6-((3-fluorophenoxy)methyl)nicotinamide], the EC50 is more than 10000 nM.

The same assay, now with this note: HEK cells transfected with rat mGluR5; read-out: rmGlu5 PAM EC50.
Regarding `CC1(C)CC(CNC(=O)c2ccc(COc3cccc(F)c3)nc2)CCO1` (stereo not drawn), the EC50 is more than 10000 nM.

With `CC(C)(C)CCNC(=O)c1ccc(COc2cc(F)cc(F)c2)nc1`, the EC50 stood at 1580 nM.

With `O=C(Nc1ccncc1)c1ccc(COc2ccccc2)nc1`, the EC50 was more than 10000 nM.

Regarding `O=C(NC1CCC1)c1ccc(COc2ccccc2)nc1`, the EC50 is 4680 nM.

For `O=C(NC(C1CC1)C(F)(F)F)c1ccc(COc2cccc(F)c2)nc1` (stereo not drawn), the EC50 is 1900 nM.

For `O=C(Nc1cc(F)cc(F)c1)c1ccc(COc2ccccc2)nc1`, the EC50 is more than 10000 nM.

Regarding `C[C@@H](NC(=O)c1ccc(COc2cccc(F)c2)nc1)C1CCC1`, the EC50 is 138 nM.

On to `O=C(NC1CC2CCC1C2)c1ccc(COc2ccccc2)nc1` (stereo not drawn) [drawing 66], for which the EC50 amounted to 120 nM.

`O=C(NCCN1CCCCC1)c1ccc(COc2ccccc2)nc1`: the EC50 was more than 10000 nM.

For `O=C(Nc1nccs1)c1ccc(COc2ccccc2)nc1`, the EC50 is 1200 nM.

`C[C@@H](NC(=O)c1ccc(COc2cccnc2)nc1)C1CCCCC1` [drawing 107]: the EC50 is 4500 nM.

In the case of `O=C(Nc1ccc(F)cc1)c1ccc(COc2ccccc2)nc1`, the EC50 was more than 10000 nM.

As to `C[C@@H](NC(=O)c1ccc(COc2cc(F)cc(F)c2)nc1)C1CCCCC1` [drawing 81], the EC50 came out at 309 nM.

Consider `O=C(NC1CCCCC1)c1ccc(COc2cccc(F)c2)nc1`, for which the EC50 came out at 447 nM.

Staying with this assay, now noted: S configuration enantiomer; read-out: mGluR5 potentiator EC50.
`C[C@H](NC(=O)c1ccc(COc2cccc(F)c2)nc1)C1CCCCC1` [Example 11b, (S)-N-(1-cyclohexylethyl)-6-((3-fluorophenoxy)methyl)nicotinamide]: the EC50 was more than 10000 nM.

Another assay deals with T2, human mGluR5 (Homo sapiens, UniProt P41594).
T2 construct: expressed in transfected cells; host or cells: HEK cells, H10H cell line
T2 sequence (P41594 21-1212): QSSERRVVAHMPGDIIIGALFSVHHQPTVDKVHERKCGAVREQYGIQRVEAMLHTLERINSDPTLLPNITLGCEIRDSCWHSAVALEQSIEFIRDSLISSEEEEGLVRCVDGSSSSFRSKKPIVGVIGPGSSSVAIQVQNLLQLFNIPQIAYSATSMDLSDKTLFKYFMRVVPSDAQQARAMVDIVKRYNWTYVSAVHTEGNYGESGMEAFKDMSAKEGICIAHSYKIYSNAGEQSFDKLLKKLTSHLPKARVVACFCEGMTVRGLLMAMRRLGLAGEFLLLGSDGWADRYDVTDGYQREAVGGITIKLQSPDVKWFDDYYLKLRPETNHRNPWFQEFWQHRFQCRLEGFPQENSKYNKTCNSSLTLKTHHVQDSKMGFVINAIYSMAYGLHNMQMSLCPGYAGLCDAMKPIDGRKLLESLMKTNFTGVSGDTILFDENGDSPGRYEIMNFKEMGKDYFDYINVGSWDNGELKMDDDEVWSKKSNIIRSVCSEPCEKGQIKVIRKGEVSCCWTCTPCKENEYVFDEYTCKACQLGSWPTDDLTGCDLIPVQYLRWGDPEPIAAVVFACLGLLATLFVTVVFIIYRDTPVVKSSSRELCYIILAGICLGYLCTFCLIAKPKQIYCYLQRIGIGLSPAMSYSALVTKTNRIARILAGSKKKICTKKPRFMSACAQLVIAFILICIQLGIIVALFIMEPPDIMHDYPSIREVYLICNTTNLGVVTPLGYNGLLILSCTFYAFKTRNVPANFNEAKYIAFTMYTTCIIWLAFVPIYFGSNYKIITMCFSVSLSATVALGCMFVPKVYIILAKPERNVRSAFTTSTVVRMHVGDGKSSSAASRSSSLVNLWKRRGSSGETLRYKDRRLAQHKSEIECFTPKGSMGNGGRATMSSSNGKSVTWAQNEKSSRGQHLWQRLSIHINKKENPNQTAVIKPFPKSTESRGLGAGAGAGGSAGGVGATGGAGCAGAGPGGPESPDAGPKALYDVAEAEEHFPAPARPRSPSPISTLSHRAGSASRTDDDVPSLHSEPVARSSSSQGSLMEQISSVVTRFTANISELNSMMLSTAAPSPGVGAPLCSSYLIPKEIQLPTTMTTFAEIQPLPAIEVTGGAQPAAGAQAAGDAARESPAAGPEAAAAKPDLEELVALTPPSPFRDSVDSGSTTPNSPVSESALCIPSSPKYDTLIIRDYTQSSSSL
Kind of assay: Potentiation of glutamate response in HEK cells transfected with human mGluR5 (H10H cell line), Ca2+ fluorescence, FDSS. Type of assay: cell-based. As to conditions: read-out: hmGluR5 EC50 (H10H cell line). The protocol: as §1, §2
Take `CC(NC(=O)c1ccc(COc2cccc(F)c2)nc1)C(F)(F)F` (stereo not drawn): the EC50 came out at 3.2 µM.

For `C[C@@H](NC(=O)c1ccc(COc2ccnc(Cl)c2)nc1)C1CCCCC1`, the EC50 was 1.5 µM.

On to `CC(NC(=O)c1ccc(COc2cccc(F)c2)nc1)c1nccs1` (stereo not drawn), for which the EC50 is more than 10 µM.

As for `C[C@@H](NC(=O)c1ccc(COc2cncc(Cl)c2)nc1)C1CCCCC1`, the EC50 is more than 10 µM.

Turning to `O=C(N[C@@H]1C[C@H]2CC[C@@H]1C2)c1ccc(COc2cccc(F)c2)nc1`, the EC50 is 0.17 µM.

`CC1(CNC(=O)c2ccc(COc3cccc(F)c3)nc2)COC1`: the EC50 is more than 10 µM.

In the case of `C[C@@H](N(C)C(=O)c1ccc(COc2cccc(F)c2)nc1)C(C)(C)C`, the EC50 is more than 10 µM.

As for `O=C(NC(c1ccccn1)C(F)(F)F)c1ccc(COc2cccc(F)c2)nc1` (stereo not drawn), the EC50 is more than 10 µM.

`Cc1cc(OCc2ccc(C(=O)N[C@H](C)C3CCCCC3)cn2)ccn1`: the EC50 was more than 10 µM.

For the compound `CC(NC(=O)c1ccc(COc2cccc(F)c2)nc1)C1CCCOC1` (stereo not drawn), the EC50 worked out at 0.44 µM.

For `C[C@@H](NC(=O)c1ccc(COc2ccnc(Cl)c2)nc1)C(C)(C)C`, the EC50 came out at 2.3 µM.

`C[C@@H](NC(=O)c1ccc(COc2cncc(C(F)(F)F)c2)nc1)C(C)(C)C`: the EC50 was more than 10 µM.

For the compound `Cc1cc(OCc2ccc(C(=O)N[C@H](C)C(C)(C)C)cn2)ccn1`, the EC50 was more than 10 µM.

With `O=C(NC1(c2ccccn2)CC1)c1ccc(COc2cccc(F)c2)nc1`, the EC50 is more than 10 µM.

As to `O=C(NC(c1ccc(F)cc1)C(F)(F)F)c1ccc(COc2cccc(F)c2)nc1` (stereo not drawn), the EC50 is more than 10 µM.

For `C[C@H](NC(=O)c1ccc(COc2cccc(F)c2)nc1)C(C)(C)C` [drawing 189], the EC50 is more than 10 µM.

Turning to `O=C(NC1CC(O)(C(F)(F)F)C1)c1ccc(COc2cccc(F)c2)nc1` (stereo not drawn) [drawing 172], the EC50 was more than 10 µM.

As to `CC1(O)CC(NC(=O)c2ccc(COc3cccc(F)c3)nc2)C1` (stereo not drawn), the 50% effective concentration (EC50) is more than 10 µM.
